EC50 data for seven compounds are collected here from patent US9346809B2 (LEO PHARMA A/S, priority 2009, dated 2016).

Molecules are shown by their SMILES. Where two headings read alike, the source gives them in different places. Where only a bound is given, the exact number is not on record here.

Common to all, as to format: biochemical
Assay [1] addresses T1, JAK1 (aa 850-1154, catalytic domain, GST-tag) (Homo sapiens, UniProt P23458).
T1 construct: JAK1 (aa 850-1154) and TYK2 (aa 871-1187) are expressed with an N-terminally fused GST-tag; GST (N); purchased Carna Biosciences, Inc; host or cells: baculovirus expression system
As to the kind of experiment: JAK kinase assay (HTRF, phosphorylation of TK substrate-biotin), JAK1. To be noted: ATP at Km (7 μM), read-out: JAK1 kinase inhibitory activity (EC50 indicator). In short, it runs like this:
(§1)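 HTRF KinEASE TK format; 1 μM biotinylated peptide, Km ATP: 7 μM (JAK1, 10 mM MgCl2, 50 nM SEB), 4 μM (JAK2), 2 μM (JAK3), 13 μM (TYK2, 50 nM SEB); 5 mM MgCl2 for the latter three. RT 20-30 min, 0.75% DMSO final. Overnight detection, EC50.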

Assay [2] has as its target T2, JAK2 (catalytic domain, His-tag) (Homo sapiens, UniProt O60674).
T2 construct: All four purified enzymes contain only the catalytic domain; His (N); purchased Carna Biosciences, Inc; host or cells: baculovirus expression system
As to the kind of experiment: JAK kinase assay (HTRF, phosphorylation of TK substrate-biotin), JAK2. Conditions: ATP at Km (4 μM), read-out: JAK2 kinase inhibitory activity (EC50 indicator). In short, it runs like this:
as §1

The target of assay [3] is T3, JAK3 (catalytic domain, His-tag) (Homo sapiens, UniProt P52333).
T3 construct: All four purified enzymes contain only the catalytic domain; His (N); purchased Carna Biosciences, Inc; host or cells: baculovirus expression system
As to the kind of experiment: JAK kinase assay (HTRF, phosphorylation of TK substrate-biotin), JAK3. To be noted: ATP at Km (2 μM), read-out: JAK3 kinase inhibitory activity (EC50 indicator). In short, it runs like this: as §1

The target in assay [4] is T4, TYK2 (aa 871-1187, catalytic domain, GST-tag) (Homo sapiens, UniProt P29597).
T4 construct: JAK1 (aa 850-1154) and TYK2 (aa 871-1187) are expressed with an N-terminally fused GST-tag; GST (N); purchased Carna Biosciences, Inc; host or cells: baculovirus expression system
T4 sequence (P29597 871-1187): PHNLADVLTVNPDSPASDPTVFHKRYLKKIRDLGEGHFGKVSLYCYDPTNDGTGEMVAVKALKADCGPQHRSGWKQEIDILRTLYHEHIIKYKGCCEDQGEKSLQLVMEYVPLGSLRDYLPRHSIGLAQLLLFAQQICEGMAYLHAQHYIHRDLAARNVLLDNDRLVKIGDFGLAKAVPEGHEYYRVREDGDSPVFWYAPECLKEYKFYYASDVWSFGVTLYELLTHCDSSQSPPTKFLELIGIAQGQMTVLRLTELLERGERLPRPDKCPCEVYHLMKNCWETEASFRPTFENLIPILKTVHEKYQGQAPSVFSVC
The experiment in a line: JAK kinase assay (HTRF, phosphorylation of TK substrate-biotin), TYK2. To be noted: ATP at Km (13 μM), read-out: TYK2 kinase inhibitory activity (EC50 indicator). In short, it runs like this:
as §1

T2 sequence (O60674 849-1124 limits assumed): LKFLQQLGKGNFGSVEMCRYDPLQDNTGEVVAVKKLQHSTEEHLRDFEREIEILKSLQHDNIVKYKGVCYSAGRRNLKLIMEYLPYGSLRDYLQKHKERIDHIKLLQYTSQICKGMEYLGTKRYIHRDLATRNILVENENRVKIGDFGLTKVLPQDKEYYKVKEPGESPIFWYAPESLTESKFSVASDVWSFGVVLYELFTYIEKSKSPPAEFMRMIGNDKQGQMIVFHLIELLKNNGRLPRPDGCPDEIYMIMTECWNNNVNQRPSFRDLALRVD
T3 sequence (P52333 822-1111 limits assumed): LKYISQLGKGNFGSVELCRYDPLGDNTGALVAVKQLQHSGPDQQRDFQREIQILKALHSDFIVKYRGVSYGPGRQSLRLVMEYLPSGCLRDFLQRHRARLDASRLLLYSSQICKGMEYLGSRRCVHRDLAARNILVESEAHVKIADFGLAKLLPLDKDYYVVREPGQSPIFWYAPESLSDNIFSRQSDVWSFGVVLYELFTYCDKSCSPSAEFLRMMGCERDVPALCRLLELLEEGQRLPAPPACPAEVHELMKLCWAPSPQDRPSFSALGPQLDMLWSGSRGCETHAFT
T1 sequence (P23458 850-1154): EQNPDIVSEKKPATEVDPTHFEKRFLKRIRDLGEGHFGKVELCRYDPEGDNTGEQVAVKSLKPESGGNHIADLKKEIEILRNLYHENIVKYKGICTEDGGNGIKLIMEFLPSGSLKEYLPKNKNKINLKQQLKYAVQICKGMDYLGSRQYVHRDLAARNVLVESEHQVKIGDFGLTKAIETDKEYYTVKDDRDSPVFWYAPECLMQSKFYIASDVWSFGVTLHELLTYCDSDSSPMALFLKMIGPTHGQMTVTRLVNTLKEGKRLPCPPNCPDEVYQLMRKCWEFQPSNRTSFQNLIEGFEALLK

With `N#CCC(=O)N1CCN(c2ccnc3[nH]ccc23)CC12CC2` [Example 220, 3-Oxo-3-[7-(1H-pyrrolo[2,3-b]pyridin-4-yl)-4,7-diaza-spiro[2.5]oct-4-yl]-propionitrile], the EC50 in assay [1] (HTRF assay) was 100 to 500 nM; in assay [2] (HTRF assay), 100 to 500 nM; in assay [3] (HTRF assay), 100 to 500 nM; in assay [4] (HTRF assay), over 500 nM.
For `O=C(c1cccc(OC(F)(F)F)c1)N1[C@@H]2CC[C@@H]1CN(c1ncnc3[nH]ccc13)C2` [Example 244, [3-(7H-Pyrrolo[2,3-d]pyrimidin-4-yl)-3,8-diaza-bicyclo[3.2.1]oct-8-yl]-(3-trifluoromethoxy-phenyl)-methanone], the EC50 in assay [1] (HTRF assay) is under 100 nM; in assay [2] (HTRF assay) it was under 100 nM; in assay [3] (HTRF assay) it was under 100 nM; in assay [4] (HTRF assay), over 500 nM.
Turning to `N#Cc1ccccc1C(=O)N1CCN(c2ccnc3[nH]ccc23)CC12CC2` [Example 235, 2-[7-(1H-Pyrrolo[2,3-b]pyridin-4-yl)-4,7-diaza-spiro[2.5]octane-4-carbonyl]-benzonitrile], the EC50 in assay [1] (HTRF assay) is 100 to 500 nM; in assay [2] (HTRF assay), under 100 nM; in assay [3] (HTRF assay), over 500 nM; in assay [4] (HTRF assay), over 500 nM.
Turning to `N#CC1(C(=O)N2CCN(c3ncnc4[nH]ccc34)CC23CC3)CC1` [Example 165, 1-[7-(7H-Pyrrolo[2,3-d]pyrimidin-4-yl)-4,7-diaza-spiro[2.5]octane-4-carbonyl]-cyclopropanecarbonitrile], the EC50 in assay [1] is under 100 nM; in assay [2] it was under 100 nM; in assay [3], under 100 nM; in assay [4] it was 100 to 500 nM.
`N#Cc1cccc(C(=O)N2CCN(c3ccnc4[nH]ccc34)CC23CC3)c1` [Example 227, 3-[7-(1H-Pyrrolo[2,3-b]pyridin-4-yl)-4,7-diaza-spiro[2.5]octane-4-carbonyl]-benzonitrile]: the EC50 was under 100 nM in assay [1] (HTRF assay), under 100 nM in assay [2] (HTRF assay), 100 to 500 nM in assay [3] (HTRF assay) and over 500 nM in assay [4] (HTRF assay).
With `N#CCc1ccccc1C(=O)N1CCN(c2ncnc3[nH]ccc23)CC12CC2` [Example 300, {2-[7-(7H-Pyrrolo[2,3-d]pyrimidin-4-yl)-4,7-diaza-spiro[2.5]octane-4-carbonyl]-phenyl}-acetonitrile], the EC50 in assay [1] (HTRF assay) was under 100 nM; in assay [2] (HTRF assay) it was under 100 nM; in assay [3] (HTRF assay), 100 to 500 nM; in assay [4] (HTRF assay), 100 to 500 nM.
With `Cc1ccc2sc(C(=O)N3CCN(c4ncnc5[nH]ccc45)CC34CC4)cc2c1` [Example 297, (5-Methyl-benzo[b]thiophen-2-yl)-[7-(7H-pyrrolo[2,3-d]pyrimidin-4-yl)-4,7-diaza-spiro[2.5]oct-4-yl]-methanone], the EC50 in assay [1] (HTRF assay) was under 100 nM; in assay [2] (HTRF assay), under 100 nM; in assay [3] (HTRF assay) it was 100 to 500 nM; in assay [4] (HTRF assay) it was 100 to 500 nM.
